Experimental data reported in patent US5006560A, “Use of GABA-B selective agonists as anti-tussive agents” (Schering Corporation, priority 1989, dated 1991).

Assays:
[1] = test system: citric acid-induced cough; test: Citric acid-induced cough in guinea pigs; assay type: in vivo, guinea pig; details: for ED50: Cavia porcellus, sc, citric acid (0.55M) aerosol, guinea pigs, subcutaneous, read-out: ED50, reduction of cough frequency
Procedure: (§1) Unanesthetized male Dunkin Hartley guinea pigs (250-600 g) are placed into transparent plexiglas chambers and exposed to aerosols of capsaicin (300 μM), citric acid (0.55M), or their vehicles at an airflow of 4 L/min. Citric acid is dissolved in 0.9% saline vehicle and capsaicin is dissolved in 10% ethanol, 90% saline vehicle. The volume of solution aerosolized every minute is approximately 0.4 ml. The animals are first exposed to a vehicle aerosol for 4 minutes and then are exposed to citric acid or capsaicin aerosol for an additional 4 minutes. Coughing is detected by a microphone that is placed in the chamber and connected to an audio monitor and chart recorder. Coughs produced deflections on the chart paper which are later counted to determine a cough frequency. Test compounds are administered subcutaneously prior to exposure to citric acid or capsaicin. […] All statistics are expressed relative to control values (unpaired t-test). The results are shown in FIGS. 1A, 1B, 1C and 1D and are discussed below.
(§2) In FIGS. 1C and 1D, 3-APPA or vehicle was administered 45 minutes prior to data collection.
(§3) Guinea pigs were exposed to citric acid at a concentration of 0.55M. This dose of citric acid produced cough frequencies of 10-13 per exposure. The dose of capsaicin used was 0.3 mM and this dose produced cough frequencies of 7-9 per exposure. These doses produced consistent responses and were well tolerated by the animals. Larger doses (up to 2M for citric acid and 3 mM for capsaicin) produced distress to the animals. Lower doses (to 0.2M for citric acid and 0.03 mM for capsaicin) produced inconsistent cough responses.

capsaicin-induced cough = test: Capsaicin-induced cough in guinea pigs; assay type: in vivo, guinea pig; details: for ED50: Cavia porcellus, sc, capsaicin (0.3 mM) aerosol, guinea pigs, subcutaneous, read-out: ED50, reduction of cough frequency
Procedure: as §1, §2, §3

[2] = test system: mechanically-induced cough; test: Mechanically-induced cough in cats (probing intrathoracic trachea); assay type: in vivo, cat; details: mechanical stimulus
Procedure: (§4) Cats (2.2-3.5 kg) are anesthetized with sodium pentobarbital (35 mg/kg, i.p.). Supplemental anesthetic (5 mg/kg, i.v.) is administered as required. Cannulas are placed in a femoral vein and artery for administering drugs and measuring arterial blood pressure, respectively. A tracheostomy is performed.
(§5) Electromyograms (EMGs) of respiratory muscle activity are recorded via bipolar silver wire electrodes placed in the diaphragm and rectus abdominus muscles by the technique of Basmajian and Stecko (1962). The EMGs are amplified (1000-2000×), filtered (500 Hz-10 KHz), monitored on an oscilloscope, and integrated with a "Leaky" RC circuit (100 ms time constant).
(§6) These stimuli only elicit coughs, apneas, apneusis, or augmented breaths (sighs).
(§7) Coughing is produced by coordinated bursts of activity in inspiratory and expiratory muscles. We define a cough as a burst of activity at least 50% greater than control levels in the diaphragm (inspiratory muscle) immediately followed by or coincident with a burst of activity in the rectus abdominus muscle (expiratory muscle). These criteria eliminate apneas or apneusis (no inspiratory or expiratory bursts) and augmented breaths (no expiratory muscle activity). Test compounds are administered intravenously to determine their effects on mechanically (probe) and electrically (SLN) induced cough. […]

[3] = test system: electrically-induced cough; test: Electrically-induced cough in cats (superior laryngeal nerve stimulation); assay type: in vivo, cat; details: electrical stimulus
Procedure: as §4, §5, §6, §7

[4] = 3-APPA 3 mg/kg i.v., baclofen 0.7 mg/kg i.v.

SMILES | ED50 [1] | ED50 (capsaicin-induced cough) | reduction in cough frequency ([1]; citric acid model, FIG. 1A, 1 hour after s.c. treatment) | reduction in cough frequency (capsaicin-induced cough; capsaicin model, FIG. 1B, 1 hour after s.c. treatment) | inhibitory effect on coughing ([2]; cumulative i.v. doses, 5 minutes after injection, FIG. 3A) | inhibitory effect on coughing ([3]; cumulative i.v. doses, 5 minutes after injection, FIG. 3B) | effect of prior treatment with 3-APPA on antitussive effect of baclofen ([1]; citric acid model, 3-APPA 10 mg/kg s.c. before baclofen 1.0 mg/kg s.c., FIG. 1C) | effect of prior treatment with 3-APPA on antitussive effect of baclofen (capsaicin-induced cough; capsaicin model, 3-APPA 10 mg/kg s.c. before baclofen 1.0 mg/kg s.c., FIG. 1D) | effect of 3-APPA on antitussive response to baclofen [2, 4] | effect of 3-APPA on antitussive response to baclofen [3, 4]
COc1ccc2c3c1O[C@H]1[C@@H](O)C=C[C@H]4[C@@H](C2)N(C)CC[C@@]341 [Codeine] | 30 mg/kg | 10 mg/kg | – | – | – | – | – | – | – | –
NCC(CC(=O)O)c1ccc(Cl)cc1 (racemic) [baclofen] | ~0.7 mg/kg | ~0.7 mg/kg | dose-dependent reduction in cough frequency | dose-dependent reduction in cough frequency | dose-dependent | dose-dependent | – | – | – | –
NCCCP(=O)(O)O [3-APPA, 3-aminopropylphosphonic acid] | – | – | – | – | – | – | attenuated | attenuated | attenuated these responses | attenuated these responses
